Laboratory results published in the supplement of paper PMC10883282.

Key:
Assay in all cases: relative viability vs DMSO control (72 h) (fraction); higher = more viable cells
A204 = test system: A204
How it was run: (§1)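 Sarcoma cell lines were grown in 384-well plates seeded toward 80–90% confluence and exposed 24 h later to serially diluted compound. After 72 h at 37 °C and 5% CO2, with 0.1% DMSO vehicle and a 5 µM positive control on the plates, ATPLite was read. Relative viability, given as percent growth averaged over up to triplicate wells, was rescaled so that 1 is full and 0 is none.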

G401 = test system: G401
How it was run: as §1

HS729 = test system: HS729
How it was run: as §1

KHOS-240S = test system: KHOS-240S
How it was run: as §1

MES-SA = test system: MES-SA
How it was run: as §1

RD = test system: RD
How it was run: as §1

SK-ES-1 = test system: SK-ES-1
How it was run: as §1

SK-LMS-1 = test system: SK-LMS-1
How it was run: as §1

SW1353 = test system: SW1353
How it was run: as §1

SW872 = test system: SW872
How it was run: as §1

SW982 = test system: SW982
How it was run: as §1

VA-ES-BJ = test system: VA-ES-BJ
How it was run: as §1

CC(C)Oc1ccc(-c2nn([C@@H](C)c3oc4ccc(F)cc4c(=O)c3-c3cccc(F)c3)c3ncnc(N)c23)cc1F [Umbralisib]
Settings | relative viability
A204, 0.00017 µM | 1.08
A204, 0.00051 µM | 1.11
A204, 0.00152 µM | 1.12
A204, 0.00457 µM | 1.12
A204, 0.01372 µM | 1.08
A204, 0.04115 µM | 1.09
A204, 0.1235 µM | 1.08
A204, 0.3704 µM | 1.07
A204, 1.111 µM | 0.986
A204, 3.333 µM | 1.02
A204, 10 µM | 0.9
G401, 0.00017 µM | 1.02
G401, 0.00051 µM | 1.068
G401, 0.00152 µM | 1.09
G401, 0.00457 µM | 1.05
G401, 0.01372 µM | 1.03
G401, 0.04115 µM | 1.01
G401, 0.1235 µM | 1.02
G401, 0.3704 µM | 0.99
G401, 1.111 µM | 0.988
G401, 3.333 µM | 1.05
G401, 10 µM | 1.1
HS729, 0.00017 µM | 1.09
HS729, 0.00051 µM | 1.09
HS729, 0.00152 µM | 1.05
HS729, 0.00457 µM | 1.04
HS729, 0.01372 µM | 1.05
HS729, 0.04115 µM | 0.991
HS729, 0.1235 µM | 1.04
HS729, 0.3704 µM | 1.01
HS729, 1.111 µM | 0.942
HS729, 3.333 µM | 0.936
HS729, 10 µM | 0.895
KHOS-240S, 0.00017 µM | 1.05
KHOS-240S, 0.00051 µM | 1.08
KHOS-240S, 0.00152 µM | 1.09
KHOS-240S, 0.00457 µM | 1.08
KHOS-240S, 0.01372 µM | 1.07
KHOS-240S, 0.04115 µM | 1.06
KHOS-240S, 0.1235 µM | 1.07
KHOS-240S, 0.3704 µM | 1.06
KHOS-240S, 1.111 µM | 1.03
KHOS-240S, 3.333 µM | 1
KHOS-240S, 10 µM | 0.909
MES-SA, 0.00017 µM | 0.946
MES-SA, 0.00051 µM | 0.928
MES-SA, 0.00152 µM | 0.94
MES-SA, 0.00457 µM | 0.981
MES-SA, 0.01372 µM | 0.957
MES-SA, 0.04115 µM | 0.9436
MES-SA, 0.1235 µM | 0.943
MES-SA, 0.3704 µM | 0.945
MES-SA, 1.111 µM | 0.937
MES-SA, 3.333 µM | 0.922
MES-SA, 10 µM | 0.747
RD, 0.00017 µM | 1.1
RD, 0.00051 µM | 1.08
RD, 0.00152 µM | 1.11
RD, 0.00457 µM | 1.1
RD, 0.01372 µM | 1.113
RD, 0.04115 µM | 1.11
RD, 0.1235 µM | 1.12
RD, 0.3704 µM | 1.08
RD, 1.111 µM | 1.14
RD, 3.333 µM | 1.11
RD, 10 µM | 1.11
SK-ES-1, 0.00017 µM | 1.07
SK-ES-1, 0.00051 µM | 1.07
SK-ES-1, 0.00152 µM | 1.05
SK-ES-1, 0.00457 µM | 1.07
SK-ES-1, 0.01372 µM | 1.06
SK-ES-1, 0.04115 µM | 1.09
SK-ES-1, 0.1235 µM | 1.04
SK-ES-1, 0.3704 µM | 1.04
SK-ES-1, 1.111 µM | 1.04
SK-ES-1, 3.333 µM | 1.08
SK-ES-1, 10 µM | 1.02
SK-LMS-1, 0.00017 µM | 1.07
SK-LMS-1, 0.00051 µM | 1.06
SK-LMS-1, 0.00152 µM | 1.06
SK-LMS-1, 0.00457 µM | 1.04
SK-LMS-1, 0.01372 µM | 1.05
SK-LMS-1, 0.04115 µM | 1.05
SK-LMS-1, 0.1235 µM | 1.03
SK-LMS-1, 0.3704 µM | 1.06
SK-LMS-1, 1.111 µM | 1.02
SK-LMS-1, 3.333 µM | 0.875
SK-LMS-1, 10 µM | 0.752
SW872, 0.00017 µM | 1.09
SW872, 0.00051 µM | 1.09
SW872, 0.00152 µM | 1.1
SW872, 0.00457 µM | 1.08
SW872, 0.01372 µM | 1.11
SW872, 0.04115 µM | 1.087
SW872, 0.1235 µM | 1.07
SW872, 0.3704 µM | 1.07
SW872, 1.111 µM | 1.09
SW872, 3.333 µM | 1.095
SW872, 10 µM | 1.04
SW982, 0.00017 µM | 1.03
SW982, 0.00051 µM | 1.078
SW982, 0.00152 µM | 1.07
SW982, 0.00457 µM | 1.06
SW982, 0.01372 µM | 1.05
SW982, 0.04115 µM | 1.067
SW982, 0.1235 µM | 1.07
SW982, 0.3704 µM | 1.079
SW982, 1.111 µM | 1.063
SW982, 3.333 µM | 1.08
SW982, 10 µM | 1.12
SW1353, 0.00017 µM | 1.03
SW1353, 0.00051 µM | 1.03
SW1353, 0.00152 µM | 1.032
SW1353, 0.00457 µM | 1.06
SW1353, 0.01372 µM | 1.03
SW1353, 0.04115 µM | 1
SW1353, 0.1235 µM | 1.01
SW1353, 0.3704 µM | 0.959
SW1353, 1.111 µM | 0.97
SW1353, 3.333 µM | 0.946
SW1353, 10 µM | 0.8866
VA-ES-BJ, 0.00017 µM | 1.07
VA-ES-BJ, 0.00051 µM | 1.07
VA-ES-BJ, 0.00152 µM | 1.11
VA-ES-BJ, 0.00457 µM | 1.08
VA-ES-BJ, 0.01372 µM | 1.08
VA-ES-BJ, 0.04115 µM | 1.05
VA-ES-BJ, 0.1235 µM | 1.07
VA-ES-BJ, 0.3704 µM | 1.05
VA-ES-BJ, 1.111 µM | 1.05
VA-ES-BJ, 3.333 µM | 1.05
VA-ES-BJ, 10 µM | 1.1
